Measured values reported in patent publication US6518289B1 (Pfizer, Inc., priority 1997, dated 2003).
Where a name gives a salt, the structure may show the parent alone.

Tests used:
DBA2 audiogenic seizure = DBA2 audiogenic seizure model
[1] = system: carrageenan induced hyperalgesia; assay: carrageenan induced hyperalgesia assay (Pain Model)
[2] = 30 mg/kg orally in the rat, at 1 hour
[3] = 30 mg/kg orally in the rat, at 2 hours

| Structure (SMILES) | 2 Hours (second column pair, group head not given) (DBA2 audiogenic seizure) | Pain Model % MPE 1 Hour [1] [% MPE] | Pain Model % MPE 2 Hours [1] [% MPE] | 1 Hour (second column pair, group head not given) (DBA2 audiogenic seizure) | further results |
| --- | --- | --- | --- | --- | --- |
| CS(=O)(=O)NCCC1(CN)CCCCC1 [N-[2-1-Aminomethyl-cyclohexyl)-ethyl]-methanesulfonamide hydrochloride] | 0 | 0.3 | −0.9 |  |  |
| Cl.NCC1(Cc2nnn[nH]2)CCCCC1 [C-[1-(1H-Tetrazol-5-ylmethyl)-cyclohexyl)-methylamine hydrochloride] | 100 |  |  | 60 | protection (DBA2 audiogenic seizure; 10 mg/kg oral dosing, 1 hour postdose): 60%; protection (DBA2 audiogenic seizure; 10 mg/kg oral dosing, 2 hours postdose): 100%; protection (DBA2 audiogenic seizure; 10 mg/kg oral dosing, 4 hours postdose): 100%; protection (DBA2 audiogenic seizure; 10 mg/kg oral dosing, 6 hours postdose): 80% |
| Cl.NCC1(Cc2noc(=O)[nH]2)CCCCC1 | 40 | 80.6 | 76.1 | 20 | duration of antihyperalgesic effect compared with gabapentin ([1]; 30 mg/kg orally in the rat): antihyperalgesic effect of longer duration than gabapentin; increase of paw withdrawal latency [1, 2]: 80.6%; increase of paw withdrawal latency [1, 3]: 76%; activity in the carrageenan induced hyperalgesia assay ([1]; result in words): active |
| CS(=O)(=O)NCCC1(CN)CCCCC1 (as salt: hydrochloride) [N-[2-1-Aminomethyl-cyclohexyl)-ethyl]-methanesulfonamide hydrochloride] |  |  |  |  | melting point: 196 to 199 °C |
| CC(C)(C)C(=O)NCCC1(CN)CCCCC1 [N-[2-(1-Aminomethyl-cyclohexyl)-ethyl]-t-butylamide] | 0 | 1.6 | −4.8 |  |  |
| Cl.NCC1(Cc2noc(=S)[nH]2)CCCCC1 [3-(1-Aminomethyl-cyclohexylmethyl)-4H-[1,2,4]oxadiazole-5-thione; hydrochloride] | 0 |  |  | 0 | melting point: 210 to 212 °C |
| NCC1(CC(=O)O)CCCCC1 [Gabapentin, 1-(aminomethyl)-cyclohexaneacetic acid, reference compound] | 100 | 49.9 | 19.9 | 100 | response in the DBA2 audiogenic seizure model (DBA2 audiogenic seizure; 10 mg/kg orally, result in words): no significant response; protection (DBA2 audiogenic seizure; 30 mg/kg, 2 hours postdose): 100%; increase of paw withdrawal latency [1, 2]: 49.9%; increase of paw withdrawal latency [1, 3]: 19.9% |
